{"source": "patent US20210212320A1", "about": "“FRUIT THINNING METHOD WITH 1-AMINOCYCLOPROPANE CARBOXYLIC ACID” (Valent BioSciences LLC, priority 2021, published 2021)", "key": {"[1]": {"test_system": "Sweet Dream peaches", "experiment": "Effect of ACC concentration on fruit set of Sweet Dream peaches, applied at full bloom", "assay_type": "in vivo, peach", "from_the_text": "(§1) Effect of ACC concentration on fruit set (number of fruit per shoot) of Sugar May peaches and Sweet Dream peaches when applied at full bloom"}, "[2]": {"test_system": "Sugar May peaches", "experiment": "Effect of ACC concentration on fruit set of Sugar May peaches, applied at full bloom", "assay_type": "in vivo, peach", "from_the_text": "as §1"}, "[3]": {"test_system": "Gala apples", "experiment": "Effect of ACC concentration on modulating fruit set of Gala apples", "assay_type": "in vivo, apple", "from_the_text": "Effect of ACC concentration on modulating fruit set (number of fruit per 100 flower clusters) of Gala apples when applied at petal fall (BBCH67), 10 mm fruit diameter, or 20 mm fruit diameter."}}}
{"compound": "NC1(C(=O)O)CC1", "note": "[ACC, 1-aminocyclopropane carboxylic acid]", "values": [{"measurement": "Number of Fruit Per Shoot (fruit set)", "setting": "[1]; ACC 300 parts per million", "value": 12, "unit": "fruit per shoot"}, {"measurement": "Number of Fruit Per Shoot (fruit set)", "setting": "[1]; ACC 600 parts per million", "value": 9, "unit": "fruit per shoot"}, {"measurement": "Number of Fruit Per Shoot (fruit set)", "setting": "[1]; ACC 900 parts per million", "value": 6, "unit": "fruit per shoot"}, {"measurement": "Number of Fruit Per Shoot (fruit set)", "setting": "[2]; ACC 300 parts per million", "value": 0.7, "unit": "fruit per shoot"}, {"measurement": "Number of Fruit Per Shoot (fruit set)", "setting": "[2]; ACC 600 parts per million", "value": 0.3, "unit": "fruit per shoot"}, {"measurement": "Number of Fruit Per Shoot (fruit set)", "setting": "[2]; ACC 900 parts per million", "value": 0.1, "unit": "fruit per shoot"}, {"measurement": "fruit set (number of fruit per 100 flower clusters)", "setting": "[3]; ACC 224 parts per million, applied at 10 mm fruit diameter", "value": "125 fruit per 100 flower clusters"}, {"measurement": "fruit set (number of fruit per 100 flower clusters)", "setting": "[3]; ACC 224 parts per million, applied at 20 mm fruit diameter", "value": "89 fruit per 100 flower clusters"}, {"measurement": "fruit set (number of fruit per 100 flower clusters)", "setting": "[3]; ACC 224 parts per million, applied at petal fall (BBCH67)", "value": "117 fruit per 100 flower clusters"}, {"measurement": "fruit set (number of fruit per 100 flower clusters)", "setting": "[3]; ACC 450 parts per million, applied at 10 mm fruit diameter", "value": "108 fruit per 100 flower clusters"}, {"measurement": "fruit set (number of fruit per 100 flower clusters)", "setting": "[3]; ACC 450 parts per million, applied at 20 mm fruit diameter", "value": "46 fruit per 100 flower clusters"}, {"measurement": "fruit set (number of fruit per 100 flower clusters)", "setting": "[3]; ACC 450 parts per million, applied at petal fall (BBCH67)", "value": "96 fruit per 100 flower clusters"}, {"measurement": "fruit set (number of fruit per 100 flower clusters)", "setting": "[3]; ACC 900 parts per million, applied at 10 mm fruit diameter", "value": "63 fruit per 100 flower clusters"}, {"measurement": "fruit set (number of fruit per 100 flower clusters)", "setting": "[3]; ACC 900 parts per million, applied at 20 mm fruit diameter", "value": "12 fruit per 100 flower clusters"}, {"measurement": "fruit set (number of fruit per 100 flower clusters)", "setting": "[3]; ACC 900 parts per million, applied at petal fall (BBCH67)", "value": "72 fruit per 100 flower clusters"}]}
